Results from BigSolDB 2.1.

C[C@@]12C[C@H]3OC(=O)[C@@H]1CO[C@]14O[C@@]5([C@H]2C1=O)[C@@]3(C)OC(=O)[C@@]5(O)CC[C@H]1[C@H]4C[C@@H](O)[C@@]2(O)CC=CC(=O)[C@]12C
solubility (mole fraction) (in acetone, 283.2 K): 0.0173
solubility (mole fraction) (in acetone, 293.2 K): 0.022
solubility (mole fraction) (in acetone, 298.2 K): 0.0238
solubility (mole fraction) (in acetone, 303.2 K): 0.0265
solubility (mole fraction) (in acetone, 308.2 K): 0.0286
solubility (mole fraction) (in acetone, 313.2 K): 0.0309
solubility (mole fraction) (in chloroform, 283.2 K): 0.0046
solubility (mole fraction) (in chloroform, 293.2 K): 0.0047
solubility (mole fraction) (in chloroform, 298.2 K): 0.0049
solubility (mole fraction) (in chloroform, 303.2 K): 0.0053
solubility (mole fraction) (in chloroform, 308.2 K): 0.0058
solubility (mole fraction) (in chloroform, 313.2 K): 0.006
solubility (mole fraction) (in ethanol, 283.2 K): 0.0039
solubility (mole fraction) (in ethanol, 293.2 K): 0.0047
solubility (mole fraction) (in ethanol, 298.2 K): 0.0058
solubility (mole fraction) (in ethanol, 303.2 K): 0.0071
solubility (mole fraction) (in ethanol, 308.2 K): 0.0089
solubility (mole fraction) (in ethanol, 313.2 K): 0.0107
solubility (mole fraction) (in ethyl acetate, 283.2 K): 0.003
solubility (mole fraction) (in ethyl acetate, 293.2 K): 0.0032
solubility (mole fraction) (in ethyl acetate, 298.2 K): 0.0036
solubility (mole fraction) (in ethyl acetate, 303.2 K): 0.0042
solubility (mole fraction) (in ethyl acetate, 308.2 K): 0.0052
solubility (mole fraction) (in ethyl acetate, 313.2 K): 0.0059
solubility (mole fraction) (in methanol, 283.2 K): 0.0081
solubility (mole fraction) (in methanol, 293.2 K): 0.0092
solubility (mole fraction) (in methanol, 298.2 K): 0.0101
solubility (mole fraction) (in methanol, 303.2 K): 0.0109
solubility (mole fraction) (in methanol, 308.2 K): 0.0122
solubility (mole fraction) (in methanol, 313.2 K): 0.0159
solubility (mole fraction) (in water, 283.2 K): 0.0012
solubility (mole fraction) (in water, 293.2 K): 0.0021
solubility (mole fraction) (in water, 298.2 K): 0.0027
solubility (mole fraction) (in water, 303.2 K): 0.0028
solubility (mole fraction) (in water, 308.2 K): 0.0029
solubility (mole fraction) (in water, 313.2 K): 0.003
